How the values were obtained:
[1] = tested on: Human umbilical vein endothelial cells (HUVEC), VEGF-stimulated; assay: Test on the inhibition of VEGF-stimulated HUVEC growth ([3H]thymidine incorporation); type: cell-based; conditions: human recombinant VEGF 10 ng/ml
[2] = tested on: VEGF-dependent in vitro angiogenesis (endotherial vessel forming amount); assay: In vitro angiogenesis inhibition test (KURABO angiogenesis kit, CD31 staining); type: cell-based; conditions: Homo sapiens, 312 h; 10 ng/ml VEGF, 13 days culture, anti-VEGF antibody as 0% control
Method: Test method: An angiogenesis assay kit (mfd. by KURABO was used. A medium prepared by adding 10 ng/ml of VGEF (R & D Systems) to the special medium attached to the kit used as the culture medium. Each test drug was prepared as a 10 mM DMSO solution and added to a final concentration of from 0.003 to 1 μM by diluting with the special medium. Amount of angiogenesis under a condition of not adding the test drug was used as the positive control, and a condition under which 25 μg/ml of an anti-VEGF antibody (Sigma) was added was used as the negative control. On the 4th, 7th and 10th days after commencement of the culturing, the test drug was prepared as described in the above and exchanged with the medium of each well. On the 13th day, fixation of the cell layer was carried out in accordance with the method attached to the kit. That is, fixation of cell layer was carried out by adding ice-cooled 70% ethanol after washing with a physiological phosphate buffer and then allowing to stand at room temperature for 30 minutes. […]
A endotherial vessel staining kit CD31 for staining (mfd. by KURABO) was used for the staining of the thus formed hollow organ. […] By importing the file preserved in the imaging software, the number of pixel obtained by threshold and measure commands was recorded. […]

[3] = tested on: human colon tumor COLO 205; assay: In vivo anti-tumor test using human colon tumor bearing nude mice; parameters: species or system female Balb/c nude mouse; conditions: COLO 205 bearing nude mice, oral once a day for 14 days, 10 or 30 mg/kg/day
Method: Test method: A total of 4×10^6 cells of a human colon tumor COLO 205 were administered under the dorsal side skin of each female Balb/c nude mouse. When the tumor volume reached 50 to 100 mm^3, each of the test compounds was orally administered once a day for 14 days. In addition, 0.5% methyl cellulose aqueous solution was orally administered to the control group. Calipers were used for the measurement of tumor diameter, and it was measured on the next day of the final administration. In this case, the tumor volume was calculated using the following calculation formula. Tumor volume=(width^2×length)/2

[4] = tested on: Human umbilical vein endothelial cells (HUVEC), VEGF-stimulated; assay: Test on the inhibition of VEGF-stimulated HUVEC growth ([3H]thymidine incorporation); type: cell-based; conditions: human recombinant VEGF 10 ng/ml; remark: listed apart in the source
Method: Test method: (Cell culture) Human umbilical vein endothelial cells (HUVEC) were cultured using EGM-2 complete medium (Clonetics) which had been supplemented with additives (2% FBS, 0.4% FGF (fibroblast growth factor), 0.1% VEGF, 0.1% IGF-I (insulin like growth factor-I), 0.1% EGF (epidermal growth factor), 0.1% ascorbic acid, 0.1% GA-1000, 0.1% heparin and 0.04% hydrocortisone).
(Evaluation of compounds) HUVEC (10,000 cells/well) were inoculated into EGM-2 complete medium in a gelatin-coated 96 well plate (mfd. by IWAKI) and cultured overnight. After washing with a physiological phosphate buffer, the medium was exchanged with a low serum medium (Medium 199/0.1% FBS) and the culturing was continued for 24 hours. Each of the compounds to be evaluated was prepared as a 10 mM DMSO solution and diluted with the low serum medium. This was added to each well to a final concentration of from 0.001 to 10 μM. After 2 hours of the compound treatment, human recombinant VEGF (R & D Systems) was added to a final concentration of 10 ng/ml. After 18 hours, [^3H]thymidine (Amersham Pharmacia) was added in 5 μCi/well portions. After 4 hours, the reaction was terminated by adding 0.2% SDS in 50 μl/well portions, and the product was recovered on GF/C Unifilter (Packard). After adding 25 μl of Microscinti 20 (Packard), the radioactivity incorporated into the DNA trapped on the filter was measured using TopCount (Packard). The IC50 of the inhibitory activity of each compound was calculated as the 50% inhibition concentration (IC50 value) of each compound to be tested, by defining the incorporated amount of [^3H]thymidine at the time of VEGF addition as 100%, and its incorporated amount at the time of no addition of VEGF as 0%.

IC50 [2] | SMILES | IC50 [1] | tumor growth inhibition (tumor volume) versus control [3] | IC50 [4]
0.069 µM | O=C1Nc2ccccc2C1=C1C=Cc2ccccc2N1 [Compound A, 3-quinolin-2(1H)-ylideneindolin-2-one] | 0.14 µM | – | –
– | O=C1Nc2ccccc2C1=C1C=Cc2cc(OCCN3CCOCC3)ccc2N1 [Example 4, 3-[6-(2-morpholin-4-ylethoxy)quinolin-2(1H)-ylidene]indolin-2-one] | 0.19 µM | inhibit the tumor growth with a significance for the control | –
– | CN1CCN(CCOc2ccc3c(c2)C=CC(=C2C(=O)Nc4ccccc42)N3)CC1 [Example 41] | – | inhibit the tumor growth with a significance for the control | 0.12 µM
– | CCN(CC)CCOc1ccc2c(c1)C=CC(=C1C(=O)Nc3ccccc31)N2.O=C(O)CCC(=O)O [Example 44] | – | inhibit the tumor growth with a significance for the control | 0.28 µM
– | O=C1Nc2ccccc2C1=C1C=Cc2cc(CN3CCOCC3)ccc2N1 [Example 54] | – | inhibit the tumor growth with a significance for the control | 0.029 µM
– | CCN(CC)CCCc1ccc2c(c1)C=CC(=C1C(=O)Nc3ccccc31)N2 [Example 99] | – | inhibit the tumor growth with a significance for the control | 0.13 µM
– | O=C1Nc2ccccc2C1=C1C=Cc2cc(CNCC3CCCO3)ccc2N1 (stereo not drawn) [Example 111] | – | inhibit the tumor growth with a significance for the control | 0.3 µM
– | Cl.O=C1Nc2ccccc2C1=C1C=Cc2cc(CNCC3CCOCC3)ccc2N1 [Example 113] | – | inhibit the tumor growth with a significance for the control | –
– | O=C1Nc2ccccc2C1=C1C=Cc2cc(CNC3CCOCC3)ccc2N1 [Example 115] | – | inhibit the tumor growth with a significance for the control | –
– | CN1CCN(Cc2ccc3c(c2)C=CC(=C2C(=O)Nc4ccccc42)N3)CC1 [Example 132, 3-{6-[(4-methylpiperazin-1-yl)methyl]quinolin-2(1H)-ylidene}indolin-2-one] | – | inhibit the tumor growth with a significance for the control | –
– | CCN1CCN(Cc2ccc3c(c2)C=CC(=C2C(=O)Nc4ccccc42)N3)CC1 [Example 134, 3-{6-[(4-ethylpiperazin-1-yl)methyl]quinolin-2(1H)-ylidene}indolin-2-one] | – | inhibit the tumor growth with a significance for the control | –
– | CN1CCN(C(=O)c2ccc3c(c2)C=CC(=C2C(=O)Nc4ccccc42)N3)CC1 [Example 148, 3-[6-(4-methylpiperazine-1-carbonyl)quinolin-2(1H)-ylidene]indolin-2-one] | 0.074 µM | inhibit the tumor growth with a significance for the control | –
– | O=C1Nc2cc(F)ccc2C1=C1C=Cc2cc(OCCN3CCOCC3)ccc2N1 [Example 310] | – | inhibit the tumor growth with a significance for the control | 0.31 µM
– | O=C1Nc2ccc(F)cc2C1=C1C=Cc2cc(OCCN3CCOCC3)ccc2N1 [Example 311] | – | inhibit the tumor growth with a significance for the control | 0.24 µM

Reference: US20050090498A1, “3-Quinolin-2(1h)-ylideneindolin-2-one derivative” (priority 2001, published 2005)
